How the values were obtained:
Assay type in all cases: cell-based
[1] = test system: Aspergillus flavus; assay: Agar plate disc-diffusion, antifungal inhibition zone; conditions: Sabouraud's dextrose agar, 72 h
Description: (§1) The agar plate disc-diffusion method was applied. […] The discs were then placed onto the surface of agar plates (nutrient agar for bacteria and Sabouraud's dextrose agar for fungi) seeded with the test organism. Each plate contained 15 mL of the agar medium, previously seeded with 0.2 mL of the broth culture of each organism pregrown for 18 h. The plates were incubated at 37° C. for 48 h, and 72 h for fungi. The inhibition zones was measured in mm. Discs impregnated with DMSO were used as a control, and its inhibition zone was subtracted from the tested compound actual inhibition zone.

[2] = test system: Chrysosporium keratinophilum; assay: as above; conditions: Sabouraud's dextrose agar, 72 h
Description: as §1

[3] = test system: Bacillus cereus; assay: Agar plate disc-diffusion, antibacterial inhibition zone; conditions: nutrient agar, 37° C., 48 h
Description: as §1

[4] = test system: Escherichia coli; assay: as above; conditions: nutrient agar, 37° C., 48 h
Description: as §1

[5] = test system: Pseudomonas aeruginosa; assay: as above; conditions: nutrient agar, 37° C., 48 h
Description: as §1

[6] = test system: Staphylococcus aureus; assay: as above; conditions: nutrient agar, 37° C., 48 h
Description: as §1

[7] = A = concentration of comp. = 10,000 μL
[8] = B = concentration of comp. = 30,000 μL
[9] = C = concentration of comp. = 50,000 μL

Row | SMILES | inhibition zone, Aspergillus flavus [1, 7] | inhibition zone, Aspergillus flavus [1, 8] | inhibition zone, Aspergillus flavus [1, 9] | inhibition zone, Chrysosporium keratinophilum [2, 8] | inhibition zone, Chrysosporium keratinophilum [2, 9] | inhibition zone, Bacillus Cereus [3, 8] | inhibition zone, Chrysosporium keratinophilum [2, 7] | inhibition zone, Escherichia coli [4, 7] | inhibition zone, Escherichia coli [4, 8] | inhibition zone, Escherichia coli [4, 9] | inhibition zone, Pseudomonas aeruginosa [5, 7] | inhibition zone, Pseudomonas aeruginosa [5, 8] | inhibition zone, Pseudomonas aeruginosa [5, 9] | inhibition zone, Staphylococcus aureus [6, 7] | inhibition zone, Staphylococcus aureus [6, 8] | inhibition zone, Staphylococcus aureus [6, 9] | inhibition zone, Bacillus Cereus [3, 7] | inhibition zone, Bacillus Cereus [3, 9]
1 | O=C(O)c1cn(C2CC2)c2cc(N3CCNCC3)c(F)cc2c1=O [Cip., reference compound] | 28 mm | 31 mm | 43 mm | 33 mm | 55 mm | 31 mm |  |  |  |  |  |  |  |  |  |  |  | 
2 | COc1ccc(-c2nc(-c3ccc(Br)cc3)c(-c3ccc(Br)cc3)n2CCCCCC(=O)O)cc1 [V, 6-(4,5-bis(4-bromophenyl)-2-(4-methoxyphenyl)-1H-imidazol-1-yl)hexanoic acid] | 25 mm | 28 mm | 35 mm | 27 mm | 47 mm | 20 mm | 25 mm | 27 mm | 35 mm | 49 mm | 26 mm | 28 mm | 40 mm | 21 mm | 28 mm | 38 mm | 18 mm | 35 mm
